Source: patent US5077035A, “Radioiodinated benzovesamicol analogs for cholinergic nerve mapping” (priority 1990, dated 1991)

What was measured:
[1] = tested on: vesicular sequestration of acetylcholine; conditions: cited from earlier work
cholinergic neurons [2] = assay: Tissue distribution of radiotracer in mouse brain and tissues 4 h after intravenous injection (Example 9, Table II); conditions: 4 h after i.v. injection
cholinergic neurons [3] = assay: Temporal pattern of distribution in mouse brain, 4 to 24 h (FIGS. 3 and 4); format: in vivo, female CD-1 mice
in vivo = conditions: mouse, iv
cholinergic neurons [4] = assay: Blocking of tracer accumulation by pretreatment with unlabeled (-)-vesamicol; conditions: i.p.
[5] = Physiological activity of the enantiomers
[6] = Brain distribution of 5-[125I]iodobenzovesamicol in mice, control and blocked (Example 10, Table III); format: in vivo, CD-1 mice; conditions: mouse, iv, 10 uCi, normalized to a 20 g mouse
Protocol: (§1) Radioactive compound 13 as prepared above in Example 1 was dissolved in ethanol/0.005M sodium acetate (1/9) buffer (pH 4.5) at 1 mCi/ml and 10 μCi of the solution was administered intravenously to lightly etherized CD-1 mice. Animals were sacrificed at various time points after injection. Samples of the brain and other tissues were excised, weighed, and counted. As shown below in Table III, the ratios at 4 hours are consistent with the regional distribution pattern of central cholinergic neurons. […] | ^a N = 5 per group. Mice (CD1) weighed 19-21 g. Concentrations are | normalized to a 20 g mouse. […] | prior to i.v. tracer injection; all amimals were killed 4 h after tracer | injection. Controls received an equal volume of vehicle. In vivo

[7] = tested on: central cholinergic neurons; assay: as above; format: in vivo, CD-1 mice
Protocol: as §1

striatum = assay: In vivo autoradiography in rat; conditions: 90 min after i.v. injection
Protocol: injection. Controls received an equal volume of vehicle. In vivo
autoradiography in rat 90 min after i.v. injection of 5[^125 I]IBVM

[8] = ± S.D., normalized to a 25 g mouse
[9] = Blocked: (±)-vesamicol 0.53 mg/kg, ip, 10 min prior, 4 h after i.v. tracer
[10] = Control, 4 h after i.v. injection
[11] = pretreatment with cold (±)-vesamicol 0.53 mg/kg, ip

In the case of `O[C@@H]1CCCC[C@H]1N1CCC(c2ccccc2)CC1` (relative stereo) [Vesamicol, trans-2-(4-phenylpiperidino)-cyclohexanol], the “Inhibition of vesicular sequestration of acetylcholine (in words)” value [1] is listed as “potent inhibitor of the vesicular sequestration of acetylcholine”.

In the case of `O[C@@H]1Cc2cccc([125I])c2C[C@H]1N1CCC(c2ccccc2)CC1` (relative stereo) [[^125 I]-(±)-IBVM, (±)-trans-2-hydroxy-5-iodo-3-(4-phenylpiperidino)tetralin], the “Concentration ratio [L. atrium]/[L. ventricle]” value (cholinergic neurons [2]) is reported as 4.7, the “Concentration ratio [cortex]/[blood]” value (cholinergic neurons [2]) is reported as 2.3 and the “Concentration ratio [cortex]/[cerebellum]” value (cholinergic neurons [2]) is reported as 5.9. For the same compound, the “Concentration ratio [striatum]/[cerebellum]” value (cholinergic neurons [2]) was 16.5, the “% of dose injected, whole brain” value (cholinergic neurons [2]; normalized to a 25 g mouse) was 0.56 ± .07 % OF DOSE INJECTED and the “Concentration, cerebellum” value (cholinergic neurons [2]; [8]) was 0.20 ± .04 % DOSE/G. The “Concentration, cerebral cortex” value (cholinergic neurons [2]; [8]) was 1.17 ± .20 % DOSE/G and the “Concentration, striatum” value (cholinergic neurons [2]; [8]) was 3.29 ± .52 % DOSE/G.

With `O[C@H]1Cc2cccc([125I])c2C[C@@H]1N1CCC(c2ccccc2)CC1` [[^125 I]-(+)-IBVM] the “Initial striatal uptake of the two enantiomers (in words)” value (cholinergic neurons [3]; mouse striatum) was “nearly identical initial striatal uptake”, the “Striatal washout (in words)” value (cholinergic neurons [3]; mouse striatum) was “rapidly washes out of the striatum” and the “Striatal level within 4 hours (in words)” value (cholinergic neurons [3]; mouse striatum, within 4 hours) was “nearly absent from this tissue”. The tissue uptake at 4 h (in vivo; cerebellum) was 0.06 ± 0.01 %ID/g, the tissue uptake at 4 h (in vivo; cerebral cortex) was 0.12 ± 0.01 %ID/g and the tissue uptake at 4 h (in vivo; striatum) was 0.26 ± 0.04 %ID/g. For the same compound, the “Concentration ratio [L. atrium]/[L. ventricle]” value (cholinergic neurons [2]) was 0.9, the “Concentration ratio [cortex]/[blood]” value (cholinergic neurons [2]) was 0.3 and the “Concentration ratio [cortex]/[cerebellum]” value (cholinergic neurons [2]) was 2.0. The “Concentration ratio [striatum]/[cerebellum]” value (cholinergic neurons [2]) was 4.3 and the “% of dose injected, whole brain” value (cholinergic neurons [2]; normalized to a 25 g mouse) was 0.06 ± .01 % OF DOSE INJECTED.

In the case of `O[C@@H]1Cc2cccc([125I])c2C[C@H]1N1CCC(c2ccccc2)CC1` [[^125 I]-(-)-IBVM], the “Lowering of 4 hour striatal and cortical accumulation” value (cholinergic neurons [4]; pretreatment with unlabeled (-)-vesamicol hydrochloride 605 μg/kg, 10 min prior to tracer) is reported as 65%, the “Physiological activity versus the other enantiomer (in words)” value [5] is reported as “more physiologically active than the positive” and the tissue uptake at 4 h ([6]; blood, Blocked: (±)-vesamicol 0.53 mg/kg, ip, 10 min prior, 4 h after i.v. tracer, read-out: Concentration, blood) is reported as 0.45 ± 0.1 %ID/g. For the same compound, the tissue uptake at 4 h ([6]; blood, Control, 4 h after i.v. injection, read-out: Concentration, blood) was 1.01 ± 0.7 %ID/g, the tissue uptake at 4 h ([6]; cerebellum, Blocked: (±)-vesamicol 0.53 mg/kg, ip, 10 min prior, 4 h after i.v. tracer, read-out: Concentration, cerebellum) was 0.24 ± 0.1 %ID/g and the tissue uptake at 4 h ([6]; cerebellum, Control, 4 h after i.v. injection, read-out: Concentration, cerebellum) was 0.26 ± 0.06 %ID/g. It also gave a tissue uptake at 4 h ([6]; cortex, Blocked: (±)-vesamicol 0.53 mg/kg, ip, 10 min prior, 4 h after i.v. tracer, read-out: Concentration, cortex) of 0.69 ± 0.13 %ID/g, a tissue uptake at 4 h ([6]; cortex, Control, 4 h after i.v. injection, read-out: Concentration, cortex) of 1.46 ± 0.25 %ID/g and a tissue uptake at 4 h ([6]; striatum, Blocked: (±)-vesamicol 0.53 mg/kg, ip, 10 min prior, 4 h after i.v. tracer, read-out: Concentration, striatum) of 1.97 ± 0.35 %ID/g. It also gave a tissue uptake at 4 h ([6]; striatum, Control, 4 h after i.v. injection, read-out: Concentration, striatum) of 4.12 ± 0.65 %ID/g, a Tissue ratio cortex/cerebellum [7, 9] of 2.9 and a Tissue ratio striatum/cerebellum [7, 9] of 8.2. For the same compound, the Tissue ratio cortex/cerebellum [7, 10] was 5.6, the Tissue ratio striatum/cerebellum [7, 10] was 15.8 and the “Change of cerebellum accumulation of radioactivity” value [7, 11] was -8%. For the same compound, the “Change of striatal and cortical accumulation of radioactivity” value [7, 11] was -53%, the “Neuronal specificity in cortex and striatum” value (cholinergic neurons [3]; 4-24 h, 4 h activity of (+)-enantiomer as estimate of non-neuronal binding) was > 95% and the “Specific neuronal binding in cortex and striatum” value (cholinergic neurons [3]; 4 to 24 h, cerebellar concentration as approximation of non-neuronal binding) was > 95%. For the same compound, the “Radioactivity in cerebral cortex and striatum over time (in words)” value (cholinergic neurons [3]; 4 to 24 hours following injection) was “remains at a high and fairly constant level”, the “Initial striatal uptake of the two enantiomers (in words)” value (cholinergic neurons [3]; mouse striatum) was “nearly identical initial striatal uptake” and the tissue uptake at 4 h (in vivo; cerebellum) was 0.23 ± 0.04 %ID/g. The tissue uptake at 4 h (in vivo; striatum) was 6.26 ± 0.46 %ID/g, the “Concentration ratio [L. atrium]/[L. ventricle]” value (cholinergic neurons [2]) was 5.5 and the “Concentration ratio [cortex]/[blood]” value (cholinergic neurons [2]) was 6.2. The “Concentration ratio [cortex]/[cerebellum]” value (cholinergic neurons [2]) was 11.1, the “Concentration ratio [striatum]/[cerebellum]” value (cholinergic neurons [2]) was 27.2 and the “% of dose injected, whole brain” value (cholinergic neurons [2]; normalized to a 25 g mouse) was 1.03 ± .07 % OF DOSE INJECTED. For the same compound, the “Concentration, cerebral cortex” value (cholinergic neurons [2]; [8]) was 2.56 ± .21 % DOSE/G and the “Accumulation in striatum by autoradiography (in words)” value (striatum) was “selective accumulation of tracer in the striatum”.

In the case of (-)-vesamicol [reference compound], the “Toxicity limitation of dose (in words)” value (cholinergic neurons [4]; doses larger than 605 μg/kg) is given as “larger doses of (-)-vesamicol could not be injected due to toxicity limitations” and the “Potency relative to (+)-vesamicol” value ([1]; enantioselectivity versus (+)-vesamicol) is given as 25 times more potent.
